Measured values published in patent US12447198B2, “Peptides and fragments for treating diabetes and associated metabolic diseases” (Betavive Ltd., priority 2021, dated 2025).
Entries after “also recorded” stand apart in the source; their conditions may differ.

What was measured:
C57BL/6 STZ mice = assay: Fasting blood glucose in STZ-induced diabetic C57BL/6 mice treated with IGF-2; format: in vivo, mouse; conditions: for fasting glucose levels during the ten-day course of treatment: day 0 and ten more times within ten days
Description: C57BL/6 mice male 8-10 weeks old, housed under conventional conditions and allowed laboratory chow and water ad libitum, were used in the experiments described below in Examples 3-4. Within each experiment, animals were matched by age and weight (20-24 g) and randomly divided into groups to receive different treatments. Diabetes was induced by one or more doses of streptozotocin (STZ).
Briefly, animals received intraperitoneally (i.p.) 100 mg/kg (b.w.) STZ (Cayman Chemical, Ann Arbor, MI) dissolved in citrate buffer on pH 4.5 (this procedure was repeated if needed). Clinical diabetes was defined by hyperglycemia (blood glucose levels >300 mg/dl in fasted animals). Fasting blood glucose levels were measured three times per week and samples were taken from the tail tip after starvation for 6 hours throughout the experiment.
Fasting blood glucose levels (mg/dL) were determined using the Accu-Chek Performa glucometer (Roche Diagnostics, Mannheim, Germany). After approximately two weeks of stable hyperglycemia, C57BL/6 STZ mice received exogenous injections of recombinant human IGF-2 (0.3-12 mg/kg/day injection) intraperitoneally for 5-10 consecutive days. During post-treatment follow-up period and upon termination, mice were tested for: fasting glucose, body weight, glucose tolerance test (IPGTT), serum C-peptide level, serum insulin level, and full blood and histological analysis (CBC, Chemistry, Insulin IHC and H&E).

mice = assay: Blood glucose concentration kinetics of IGF-2 vs. insulin in a glucose tolerance test; format: in vivo, mouse; conditions: IGF-2 800 μg/kg
Source text: IGF-2 therefore provides an effect that mimics insulin within the body, and that effect is referred to herein as an “insulinomimetic” effect. […] In this example, administering IGF-2 can provide better results than administering insulin with respect to blood glucose levels, even when only a single dose was used. Without being bound by this theory, it is possible that the IGF-2 combines with a number of binding proteins in the blood and its active free form is then released slowly from the complex.

STZ-treated mice = assay: Short term effects of a single IGF-2 injection on glucose and IGF-2 levels, 240 minute time course; format: in vivo, mouse
Description: More specifically, the top panel illustrates the drop in glucose blood levels in three STZ-treated mice after receiving a 800 μg/kg/day dose of IGF-2 over a 240 minute time course. […] IGF-2 is part of a complex system comprising IGF-1 and IGF-2 along with binding proteins, proteases and other interacting molecules. […] Normoglycemia is maintained while total serum IGF-2 is reduced to very low levels. […] Without being bound by this theory, it is believed that a slow release of IGF-2 from a serum complex can maintain normal blood glucose levels.

db/db mice = assay: Serum insulin in db/db mice after long-term IGF-2 treatment; format: in vivo, mouse; conditions: 12,000 μg/kg daily dose for 68 days, measured 6.5 weeks after the end of treatment
Description: In this experiment, one group of db/db mice (labeled FA X1) was injected with 3000 μg/kg of IGF-2 once a day for 68 days, a second group of db/db mice (labeled FA X4) was injected with a daily dose of 12000 μg/kg of IGF-2 divided in two injections per day for 68 days, and a third group of db/db mice was injected with saline. Serum insulin levels were measured 6.5 weeks after the end of the 68 day treatment. Treatment with the 12,000 μg/kg daily dose increased serum insulin levels by about 50% with respect to the control.

NOD mice [1] = assay: Incidence of spontaneous autoimmune type 1 diabetes / normoglycemia in NOD mice; format: in vivo, mouse
Description: Non-Obese Diabetic (NOD) mice are a polygenic model for spontaneous autoimmune type 1 diabetes (T1D). NOD mice have an elevated risk for development of autoimmune type 1 diabetes. Thus, NOD mice were used to determine whether treatment IGF-2 reduces spontaneous development of type 1 diabetes.
In this experiment, one group of NOD mice (right panel) was injected with 3000 μg/kg of IGF-2 on each of 76 consecutive days, and a second group of NOD mice (left panel) was injected with saline. […] More specifically, at the end of the 76 days of treatment, only two of the treated mice had developed high glucose levels.
FIG. 30A depicts how many NOD mice have developed autoimmune type I diabetes during an initial 66 days of treatment with IGF-2, and at various intervals post-treatment. In this experiment, one group of NOD mice was injected with 3000 μg/kg of IGF-2 on each of 66 consecutive days, and a second group of NOD mice was injected with saline.
In one exemplary experiment, NOD mice were treated with a 3000 μg/kg daily doses of IGF-2 for 150 days. ⅘ of the treated mice maintained normoglycemia compared to ¼ of the control mice. In another exemplary experiment, NOD mice were treated with a 3000 μg/kg daily dose of IGF-2 for 75 days with follow-up glucose measurements taken for an additional 90 days (during which IGF-2 was not administered). ⅝ of the treated mice maintained normoglycemia compared to 2/11 of the control mice.

NOD mice [2] = assay: Islet cell staining for glucagon and insulin in NOD mice; format: in vivo, mouse; conditions: NOD mice treated with IGF-2 for 13 weeks
β-MIN6 cells = assay: Cell count (cell proliferation) of β-MIN6 cells; format: cell-based, mouse; conditions: 5 nM, 20 nM, 80 nM, 1 week treatment
Source text: β-MIN6 cells serve as an in vitro model of mouse pancreatic islets. β-MIN6 cells were used as an in vitro model to measure the effects of treatment with IGF-2.

STZ-treated mouse islets = assay: MTT viability of STZ-treated mouse islets; format: cell-based; conditions: increasing concentrations
Source text: Yellow dye MTT is converted to a purple dye by mitochondrial reductase in viable cells. Therefore, the amount of purple dye present determined by measuring optical density of cells at 570 nm serves as a measurement of cell viability.

[3] = Safety/toxicity: pathology of blood samples and tissue samples from thirty organs; format: in vivo; conditions: end of 10 days of treatment, 24 days after termination, and 100 days after termination of 30 days of treatment

Substance: insulin-like growth factor 2 [IGF-2]
- hypoglycemia (C57BL/6 STZ mice; 3000 μg/kg/day, also when the dose was increased to 12,000 μg/kg/day): Hypoglycemia was never observed
- hypoglycemia (C57BL/6 STZ mice; 10:1 ratio of dosages, between 3000 μg and 300 μg): did not cause hypoglycemia
- fasting glucose levels during and shortly after the course of treatment (C57BL/6 STZ mice; IGF-2 300 μg/kg/day, initial dose and ten additional doses over ten days, STZ mice B5, B6, B3, B4): did not return to a normal range; also recorded: temporary drop in fasting glucose levels from days 10-25
- long-term results on fasting glucose levels (C57BL/6 STZ mice; IGF-2 300 μg/kg/day, STZ mice B5, B3, B4): long-term results were not observed
- fasting glucose levels during the ten-day course of treatment (C57BL/6 STZ mice; IGF-2 800 μg/kg/day, STZ mice A8, A6, F3, F4): returned to a normal range
- blood glucose levels remaining, mice with full or almost full resolution (C57BL/6 STZ mice; IGF-2 800 μg/kg/day, half the mice (FIGS. 5A and 5B)): ~200 mg/dL
- fasting glucose levels after the course of treatment (long term) (C57BL/6 STZ mice; IGF-2 800 μg/kg/day, mice A8 and A6): remained in the normal range until the end of the experiment; also recorded: remained in the normal range until STZ was provided again
- fasting glucose levels after the ten day course of injections ended (C57BL/6 STZ mice; IGF-2 800 μg/kg/day, mice F3 and F4): around 400
- blood glucose levels remaining, mice with partial improvement (C57BL/6 STZ mice; IGF-2 800 μg/kg/day, the remaining mice (FIGS. 6A and 6B)): ~400 mg/dL
- fasting glucose levels during the ten-day course of treatment (C57BL/6 STZ mice; IGF-2 3000 μg/kg/day, STZ mice C1, C8, C6, F1): returned to a normal range
- long-term improvements in blood glucose levels (C57BL/6 STZ mice; IGF-2 12,000 μg/kg daily on each of 12 consecutive days): long-term improvements in blood glucose levels were obtained
- long-term improvements in blood glucose levels (C57BL/6 STZ mice; IGF-2 12,000 μg/kg daily on only 5 consecutive days): long-term improvements in blood glucose levels were not obtained
- time to reduce the blood glucose level to a normal range (C57BL/6 STZ mice; daily intraperitoneal 3000 μg/kg/day, averaged over four mice): 3 to 5 days
- blood glucose level reached (normal range), averaged over four mice (C57BL/6 STZ mice; daily intraperitoneal 3000 μg/kg/day, maintained for the remainder of the 10 day window): 100 to 200 mg/dL
- time post treatment for which normal blood glucose levels are maintained (C57BL/6 STZ mice; four mice, single 10 day course at 3000 μg/kg/day, long term follow up): at least 300 days
- time at which glucose levels began to rise relative to disappearance of IGF-2 from the blood (mice; compared with FIG. 13): two hours after the IGF-2 was no longer detectable in the blood
- glucose level after administration (mice; glucose tolerance test in mice, insulin 1 unit per kg): the glucose level decreased
- time after which the recovery in glucose levels began (mice; single dose, insulin 1 unit per kg): after six hours
- free IGF-2 levels relative to total IGF-2 (STZ-treated mice; 800 μg/kg dose, 240 minute time course): a small fraction of the total IGF-2 concentration
- period for which the normal blood glucose level lasts (STZ-treated mice; single 800 μg/kg dose intraperitoneally): over four hours
- blood glucose level reached (normal level) (STZ-treated mice; single 800 μg/kg dose intraperitoneally, from hyperglycemic levels of 300-500 mg/dl): 100 to 200 mg/dL
- increase of serum insulin levels with respect to the control (db/db mice): about 50%
- fraction of the treated mice that maintained normoglycemia (NOD mice [1]; 3000 μg/kg daily dose for 75 days, follow-up for an additional 90 days, control 2/11): ⅝
- fraction of the treated mice that maintained normoglycemia (NOD mice [1]; 3000 μg/kg daily doses for 150 days, control ¼): ⅘
- incidence of spontaneous autoimmune type 1 diabetes (NOD mice [1]; 3000 μg/kg on each of 66 consecutive days and post-treatment, vs saline control): significantly reduced
- incidence of spontaneous autoimmune attack (NOD mice [1]; 3000 μg/kg on each of 76 consecutive days vs saline): reduced dramatically
- number of treated mice that had developed high glucose levels (NOD mice [1]; 3000 μg/kg, at the end of the 76 days of treatment): two
- islet cells, histological staining for glucagon and insulin (NOD mice [2]): fully functional islet cells
- cell count (cell proliferation) (β-MIN6 cells): increases cell proliferation in a dose-dependent manner
- mouse islet viability (MTT, optical density at 570 nm) (STZ-treated mouse islets): increased in a dose dependent manner
- pathologies related to treatment in blood samples and tissue samples from thirty organs [3]: No pathologies were identified
